pIC50: −log10 of the molar value.
Legend:
cell cycle = conditions: reported in the literature; cited from earlier work
[1] = test system: JeKo-1 mantle cell lymphoma cell line; experiment: In vitro cytotoxicity analysis (XTT), 72-hour exposure; format: cell-based; conditions: Homo sapiens, JEKo1 cells
Method: (§1) Briefly, cell lines were seeded at various cell densities depending on the cell type.
(§2) Tables 1-3 display cytotoxicity data for exemplary compounds following a 72-hour exposure.

[2] = test system: PC-3 prostate cancer cell line; experiment: as above; format: cell-based; conditions: Homo sapiens, PC3 cells
Method: as §1, §2

[3] = Stability study in buffer solution by HPLC; format: physicochemical; conditions: 100 μM in PBS buffer and DMSO (2:1)
Method: Stability studies were performed for exemplary compounds 48 and 15. A 100 μM solution of compound 48 was prepared in buffer (PBS, pH 7.4) and warfarin was used as an internal standard. A sample was injected into a HPLC periodically starting at day 0 and ending at about 6 weeks to find out the stability of compound 48 in PBS solution. […] After 6 weeks, 58% of compound 48 remained in the buffer solution.

NOD/SCID mice = experiment: Mouse maximum tolerated dose (MTD) study; format: in vivo; conditions: for fatality: daily for five days, three mice per group
Method: The mice were monitored for one week following compound administration. […] There was one fatality in the IP 25 mg/kg and one in the IV 50 mg/kg groups.

[4] = test system: JeKo-1 mantle cell lymphoma tumors; experiment: In vivo efficacy study, JeKo-1 tumor-bearing mice
Method: Arrows indicate the dosing schedule. The data are represented as mean±SEM.
Studies were carried out to determine whether the above doses were capable of inhibiting tumor growth in mice (FIG. 4). […] A widely used criterion for determining antitumor activity is tumor growth inhibition (T/C). This value is calculated by dividing the median tumor volumes of treated mice by the median volumes in control mice.

[5] = test system: experimental tumors in mice; conditions: reported, Nakajima et al. 1996; cited from earlier work

SMILES | effect on the cell cycle (cell cycle) | pIC50 [1] | pIC50 [2] | compound remaining in the buffer ([3]; after 6 weeks) [%] | half-life at 100 μM ([3]; read-out: calculated half life (converted)) [days] | fatality (NOD/SCID mice; IP 25 mg/kg group) | fatality (NOD/SCID mice; IV 50 mg/kg group) | blood cell counts in treated versus vehicle-only mice (NOD/SCID mice; NOD/SCID mice, 5-50 mg/kg daily for five days, IV and IP) | weight loss (NOD/SCID mice; NOD/SCID mice, 5-50 mg/kg daily for five days, IV and IP, monitored one week after dosing) | total necropsies, organ histologies (NOD/SCID mice; NOD/SCID mice, treatment and vehicle-only groups) | fatalities or weight loss in efficacy study ([4]; 5, 10, 25, or 50 mg/kg IV daily for five consecutive days) | tumor volumes compared to vehicle-treated mice ([4]; 10, 25, or 50 mg/kg IV daily for five consecutive days from day 4) | activity in in vivo cancer animal models [5]
CC[C@H](O)[C@@H](C)[C@H]1O[C@@H]1C[C@H](C)/C=C/C=C(\C)[C@H]1OC(=O)C[C@H](O)CC[C@@](C)(O)[C@@H](OC(C)=O)/C=C/[C@@H]1C [pladienolide] | cell cycle arrest at the G1 and G2/M phases | – | – | – | – | – | – | – | – | – | – | – | –
CC(/C=C/[C@@H]1C[C@]2(CO2)CC(C)(C)O1)=C\C[C@H]1CC[C@@H](NC(=O)/C=C\[C@H](C)OC(=O)C(C)C)CC1 [Compound 15, (S,Z)-5-((1R,4R)-4-((2E,4E)-5-((3R,5S)-7,7-dimethyl-1,6-dioxaspiro[2.5]octan-5-yl)-3-methylpenta-2,4-dienyl)cyclohexylamino)-5-oxopent-3-en-2-yl isobutyrate] | – | 7.40 | 5.72 | 53 | 50.6 | one | one | No significant differences | No significant weight loss | no significant toxicities | No fatalities or significant weight loss | statistically significant decreases | –
CC(=O)O[C@@H](C)/C=C\C(=O)N[C@@H]1C[C@H](C)[C@H](C/C=C(C)/C=C/[C@H]2O[C@](C)(O)C[C@@]3(CO3)[C@@H]2O)O[C@@H]1C [FR901464] | cell cycle arrest at the G1 and G2/M phases | – | – | – | – | – | – | – | – | – | – | – | showed activity

— patent publication US8969405B2, “Anticancer compounds and methods of making and using same” (St. Jude Children's Research Hospital, priority 2008, dated 2015)
